The source of these data is PubChem BioAssay (NCI).

Among the test systems are SNB-78 CNS; DMS 273 small cell lung; DMS 114 small cell lung; M19-MEL melanoma; SN12K1 renal; LOX IMVI melanoma; ACHN renal; BT-549 breast; MDA-MB-231 breast; T-47D breast; SR leukemia; CAKI-1 renal; HOP-18 NSCLC.
Assay in all cases: NCI-60 cell line screen, 48 h

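Five concentrations, 48 hours, 96-well plates. GI50 marks 50% less growth. TGI is the concentration that stops growth completely.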

Take `CCN(CC)CCCNc1ncc(C)c2[nH]c3ccncc3c12`: the TGI with SNB-78 CNS is > 100 µM; with DMS 273 small cell lung it was 25.8 µM; in the experiment on DMS 114 small cell lung it was 24.1 µM; with M19-MEL melanoma it was 28 µM; in the experiment on SN12K1 renal, 19.9 µM; in the experiment with LOX IMVI melanoma it was 14.9 µM.

Consider `Nc1nc(Cl)cc(OCC2(CO)CC(OCc3ccccc3)C2)n1` (stereo not drawn), for which the GI50 in the experiment on ACHN renal is 41.5 µM; in the experiment with BT-549 breast, 46 µM; with MDA-MB-231 breast, 26.2 µM; with T-47D breast it was 18.9 µM; in the experiment on SR leukemia, 40.6 µM; in the experiment with CAKI-1 renal, 48.2 µM. For the same compound, in the experiment on LOX IMVI melanoma, the GI50 is 45.6 µM. The compound also registered a TGI in the experiment with T-47D breast of 92.3 µM.

For `COc1cc(/C=C/c2cc(/C=C/c3ccc(O)c(OC)c3)nc(N)n2)ccc1O`, the GI50 in the experiment with ACHN renal is 2.54 µM; in the experiment on MDA-MB-231 breast, 1.45 µM; in the experiment on T-47D breast, 2.83 µM; in the experiment on SR leukemia, 0.72 µM; in the experiment on CAKI-1 renal, 2.23 µM. For the same compound, the TGI with ACHN renal is 7.88 µM; with MDA-MB-231 breast, 4.08 µM; with T-47D breast, 9.55 µM; with SR leukemia it was 3.58 µM; with CAKI-1 renal it was 6.46 µM.

On to `O=[N+]([O-])c1ccccc1NC1c2ccccc2Oc2ccccc21`, for which the GI50 is 5.93 µM with ACHN renal; 3.95 µM in the experiment on MDA-MB-231 breast; 27.8 µM with T-47D breast; 3.32 µM in the experiment with SR leukemia; 11 µM in the experiment with CAKI-1 renal; 5.52 µM in the experiment on LOX IMVI melanoma. Also, the TGI is > 100 µM with ACHN renal; 66.6 µM in the experiment on MDA-MB-231 breast; > 100 µM with T-47D breast; > 100 µM in the experiment on SR leukemia; > 100 µM in the experiment with CAKI-1 renal; > 100 µM in the experiment on LOX IMVI melanoma.

In the case of `COC(=O)c1cccc(N[C@@H]2c3cc4c(cc3C(c3cc(OC)c(O)c(OC)c3)[C@H]3C(=O)OCC32)OCO4)c1` (stereo partly drawn), the TGI in the experiment with SNB-78 CNS was 98.7 µM; in the experiment with HOP-18 NSCLC, 21.6 µM; in the experiment on DMS 273 small cell lung it was 3.35 µM; in the experiment on DMS 114 small cell lung it was 4.3 µM; in the experiment on CAKI-1 renal, 2.91 µM; in the experiment on M19-MEL melanoma, > 100 µM. The TGI in the experiment with SN12K1 renal is 9.75 µM; in the experiment with LOX IMVI melanoma, 11.3 µM.

Take `N=c1c2c(=S)n(-c3ccccc3)c(=S)n(-c3ccccc3)c2nc(SCCCN2CCN(c3cccc(Cl)c3)CC2)n1-c1ccccc1`: the TGI with ACHN renal is > 100 µM; with BT-549 breast, > 100 µM; in the experiment with MDA-MB-231 breast, 70.9 µM; with SR leukemia, > 100 µM; in the experiment on CAKI-1 renal it was > 100 µM; with LOX IMVI melanoma, > 100 µM.

As to `O=C(O)CNc1ccc(C(=O)O)cc1`, the TGI in the experiment with ACHN renal, with BT-549 breast, in the experiment with MDA-MB-231 breast, in the experiment with T-47D breast, in the experiment with CAKI-1 renal and in the experiment with LOX IMVI melanoma was > 100 µM each time.

For the compound `Cc1ccc([N+](=O)[O-])cc1S(=O)(=O)Nc1ccc(C2=NNC(c3ccccc3O)C2)cc1` (stereo not drawn), the TGI with ACHN renal was 77 µM; with BT-549 breast, 63.5 µM; in the experiment on MDA-MB-231 breast it was > 100 µM; with T-47D breast it was 72.4 µM; in the experiment with SR leukemia, 87.7 µM; with CAKI-1 renal it was > 100 µM. Further, in the experiment on LOX IMVI melanoma, the TGI is > 100 µM.

Take `CCCCCCCC/C=C\CCCCCCCC(=O)O`: the TGI in the experiment on SNB-78 CNS stood at 130 µM; with DMS 273 small cell lung it was 210 µM; in the experiment with DMS 114 small cell lung, 194 µM; in the experiment with CAKI-1 renal it was 206 µM; in the experiment on M19-MEL melanoma, 183 µM; in the experiment with SN12K1 renal, 175 µM. Besides, the TGI in the experiment on LOX IMVI melanoma stood at 239 µM.

For the compound `CCNc1nnc(-c2nsc3ccccc23)s1`, the TGI is > 100 µM with SNB-78 CNS; > 100 µM with ACHN renal; 91.6 µM with HOP-18 NSCLC; > 100 µM in the experiment with DMS 273 small cell lung; > 100 µM in the experiment with SR leukemia; > 100 µM with M19-MEL melanoma. The TGI in the experiment on LOX IMVI melanoma was > 100 µM.

As to `CC(=O)Oc1ccc2c(c1)oc1c3ccc(OC(C)=O)cc3n(C)c(=O)c21`, the TGI in the experiment on ACHN renal, in the experiment with BT-549 breast, with MDA-MB-231 breast, with T-47D breast and in the experiment with SR leukemia was > 100 µM in each case.

As to `O=C1C=CC2=[N+]([O-])C(c3ccccc3)(c3ccccc3)C(=Nc3ccccc3)C2=C1`, the TGI with SNB-78 CNS turned out to be 15.6 µM; in the experiment on ACHN renal, 3.36 µM; in the experiment with HOP-18 NSCLC, 7.52 µM; in the experiment on SR leukemia, 0.763 µM; with DMS 114 small cell lung, 3.32 µM; with CAKI-1 renal, 6.33 µM. In addition, the TGI with M19-MEL melanoma was 3.36 µM; in the experiment on LOX IMVI melanoma, 3.74 µM.

Take `Cc1cc(C)c2c(c1)CC1(Cc3c(C)ccc(C)c3C1=O)C2=O` (stereo not drawn): the TGI in the experiment on ACHN renal, with BT-549 breast, in the experiment with MDA-MB-231 breast, in the experiment on T-47D breast, with SR leukemia and with CAKI-1 renal was > 100 µM throughout.

For `N=C(N)c1ccc(-c2ccc(-c3ccccc3)s2)cc1`, the GI50 in the experiment on ACHN renal is 1.67 µM; with BT-549 breast, 3.22 µM; in the experiment on MDA-MB-231 breast it was 1.43 µM; in the experiment with T-47D breast, 1.83 µM; in the experiment with SR leukemia, 0.668 µM; in the experiment on CAKI-1 renal, 1.58 µM. Also, the TGI in the experiment on ACHN renal was 3.03 µM; in the experiment with BT-549 breast, 19.9 µM; with MDA-MB-231 breast, 2.87 µM; in the experiment with T-47D breast, 4.79 µM; with SR leukemia it was 4.13 µM; in the experiment with CAKI-1 renal it was 2.92 µM.
